Read-outs that look alike come from different tables or passages of the source.
Tests used:
S. cerevisiae PDC = target: T1, S. cerevisiae PDC (Saccharomyces cerevisiae, UniProt P06169); assay: S. cerevisiae PDC inhibitory activity assay (DCPIP reduction); type: biochemical; conditions: compounds insufficiently soluble were excluded; for inhibition at 1500 µM: read-out: Inhibition (%) Yeast PDC
T1 construct: purchased Sigma
T1 sequence (P06169 2-563 limits assumed): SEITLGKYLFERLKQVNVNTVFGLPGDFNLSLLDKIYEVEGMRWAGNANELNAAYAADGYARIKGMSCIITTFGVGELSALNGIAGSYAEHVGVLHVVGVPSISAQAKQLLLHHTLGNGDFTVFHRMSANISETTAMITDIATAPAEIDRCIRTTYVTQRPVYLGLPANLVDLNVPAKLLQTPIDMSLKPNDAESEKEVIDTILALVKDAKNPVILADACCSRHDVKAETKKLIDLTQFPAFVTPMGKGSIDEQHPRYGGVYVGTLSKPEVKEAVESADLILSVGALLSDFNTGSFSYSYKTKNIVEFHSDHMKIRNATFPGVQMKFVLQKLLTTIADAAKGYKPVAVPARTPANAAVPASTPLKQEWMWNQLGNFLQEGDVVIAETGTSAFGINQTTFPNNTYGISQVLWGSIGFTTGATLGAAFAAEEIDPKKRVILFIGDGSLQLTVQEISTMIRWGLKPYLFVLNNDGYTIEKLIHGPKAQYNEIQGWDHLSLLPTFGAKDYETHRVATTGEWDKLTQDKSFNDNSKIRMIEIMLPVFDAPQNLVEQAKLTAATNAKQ
Protocol: S. cerevisiae PDC inhibitory activity assay. S. cerevisiae PDC was purchased from Sigma. Its activity was determined by monitoring DCPIP reduction at 600 nm using a microplate reader (CLARIOstar) and conducted as described 1,2 with some modifications. The percentage inhibition of compounds was assayed at a final concentration of 1500 µM. The reaction buffer (50 mM KH 2PO4 and 1 mM MgCl 2, pH 7) contained 300 µM ThDP (or 750 µM in the competition assay), 0.27 mM DCPIP, and 0.15 mg/ml S. cerevisiae PDC. The reaction mixture was preincubated at 37 °C for 60 min, then reaction was initiated by adding pyruvate to a final concentration of 70 mM. Specific activity was calculated using the molar extinction coefficient of DCPIP, 21 mM -1 cm -1.3 […]

A. viridans PO = target: T2, A. viridans PO (Aerococcus viridans, UniProt A9X9K8); assay: A. viridans PO inhibitory activity assay (quinoneimine dye); type: biochemical
T2 sequence (A9X9K8 1-592): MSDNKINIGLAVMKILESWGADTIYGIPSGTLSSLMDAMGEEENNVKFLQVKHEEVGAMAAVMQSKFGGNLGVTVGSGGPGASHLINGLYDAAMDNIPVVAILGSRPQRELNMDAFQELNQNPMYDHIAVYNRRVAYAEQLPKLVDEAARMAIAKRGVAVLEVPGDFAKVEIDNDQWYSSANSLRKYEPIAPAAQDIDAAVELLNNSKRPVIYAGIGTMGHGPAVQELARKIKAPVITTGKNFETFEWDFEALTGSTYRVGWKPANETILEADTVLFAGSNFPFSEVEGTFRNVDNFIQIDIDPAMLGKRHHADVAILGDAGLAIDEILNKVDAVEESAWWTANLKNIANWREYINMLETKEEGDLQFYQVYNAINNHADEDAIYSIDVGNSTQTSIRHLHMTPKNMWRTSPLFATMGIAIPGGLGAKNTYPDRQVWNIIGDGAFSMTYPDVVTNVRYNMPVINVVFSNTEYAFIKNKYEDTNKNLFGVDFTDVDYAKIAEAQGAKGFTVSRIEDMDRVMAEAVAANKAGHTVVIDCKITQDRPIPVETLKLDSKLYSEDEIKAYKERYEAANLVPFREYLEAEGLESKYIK
Protocol: A. viridans PO inhibitory activity assay. A. viridans PO and horseradish peroxidase were purchased from Sigma. A. viridans PO activity was determined by monitoring appearance of quinoneimine dye at 550 nm using a microplate reader (CLARIOstar) and conducted as described 1 with some modifications.
The percentage inhibition of compounds against A. viridans PO was assayed at a final concentration of 250 µM. The reaction buffer (50 mM KH 2PO4 and 10 mM MgCl 2, pH 5.9) contained 50 µM ThDP (or 125 µM in the competition assay), 10 µM flavin adenine dinucleotide (FAD), 0.15% 4-Aminoantipyrine, 0.3% N-Ethyl-N-(2-hydroxy-3-sulfopropyl)-m-toluidine (EHSPT), 50 µg/mL horseradish peroxidase and 0.35 U/mL A. viridans PO. The reaction mixture was preincubated at 37 °C for 30 min, then reaction was initiated by adding pyruvate to a final concentration of 50 mM. To determine the IC 50, inhibitor concentration was varied (2-1000 µM) with ThDP concentration at 50 µM. 1 unit of PO activity is defined as 1 μmol of hydrogen peroxide produced per minute. The enzyme IC 50 values were calculated as described for the PDHc E1 assay. […]

in vitro = type: cell-based, human; conditions: human
Protocol: Cell-based assays (Results)
Anti-plasmodial activity assay. This study used human malaria parasite P. falciparum strain 3D7 (chloroquine-sensitive) and the same strain expressing an extra copy of TPK with a GFP-tag ( PfTPK-GFP) generated as previously described. 9 The intraerythrocytic stage of the parasites were maintained essentially as previously described. 10 Compounds were tested at concentrations up to a highest final […]
were prepared in dimethyl sulfoxide (DMSO) followed by dilution in RPMI 1640 medium in the absence of thiamine or in the presence of 2.97 µM (or 297 µM) thiamine. The final concentration of DMSO that the parasites were exposed to never exceeded 0.05%. Two-fold serial dilutions were then performed, with each concentration tested in triplicate. The assay was performed as described 11 with some modifications. Experiments were initiated with parasites in the ring-stage, a parasitemia level of 0.5% and a haematocrit of 2%. Chloroquine (0.5 µM) was used as the positive control ( i.e. complete inhibition of parasite proliferation), and parasites maintained in the absence of any inhibitor represented 100% parasite proliferation. The final volume in each well was 200 µL. Plates were incubated at 37 °C, under an atmosphere of 96% nitrogen, 3% carbon dioxide and 1% oxygen. Parasite proliferation was measured by performing SYBR-Safe assay. 12 The concentration at which the compound suppresses […]
Excel and analysed by non-linear regression plot using GraphPad Prism. The data were averaged from three independent experiments.
Cytotoxicity assay. This study used HFF cells (human foreskin fibroblasts) as described 13 with some modifications. The HFF cells were seeded in 96-well plates at a density of about 13 x 10^4 cells/mL.
Plates were incubated at 37 °C in a humidified 5% carbon dioxide incubator for 96 h. A sample of the supernatant (150 µL) was then carefully aspirated from each well and discarded. The plates were then stored at -80 °C. SYBR- Safe assay was used. The plates were thawed, SYBR-Safe lysis solution (150 µL) was added to each well and mixed via pipetting to ensure the HFF cells were detached from the plate and lysed. The plates were then processed as described for the anti-plasmodial assay.

[1] = [Compound] = 1.5 mM, [ThDP] = 0.3 mM
[2] = [Compound] = 250 μM, [ThDP] = 50 μM
[3] = increased ThDP: [Compound] = 1500 μM, [ThDP] = 750 μM
[4] = increased ThDP: [Compound] = 250 μM, [ThDP] = 125 μM

Row | Structure (SMILES) | Inhibition (%) Yeast PDC (S. cerevisiae PDC; [1]) | Inhibition (%) PO (A. viridans PO; [2]) | inhibition at 1500 µM (S. cerevisiae PDC; [1]) | other results
1 | COc1cccc(C(=O)NCCCCc2cn(Cc3cnc(C)nc3N)nn2)c1 [Compound 21c] | Insoluble | < 20% | – | –
2 | Cc1ncc(Cn2cc(CCNC(=O)c3cccc(C#N)c3)nn2)c(N)n1 [Compound 20a] | – | < 20% | < 20% | –
3 | COc1ccc(-c2cn(CCc3cn(Cc4cnc(C)nc4N)nn3)nn2)cc1 [Compound 17a] | Insoluble | < 20% | – | Inhibition (%) Yeast PDC (S. cerevisiae PDC; [3]): Insoluble; Inhibition (%) PO (A. viridans PO; [4]): <20%; IC50 at 96 h (in vitro): > 200 µM
4 | Cc1ncc(Cn2cc(CCCCn3cc(-c4ccccc4)nn3)nn2)c(N)n1 [Compound 15c] | Insoluble | < 20% | – | Inhibition (%) Yeast PDC (S. cerevisiae PDC; [3]): Insoluble; Inhibition (%) PO (A. viridans PO; [4]): <20%
5 | Cc1ncc(C[n+]2csc(CCO[P@@](=O)(O)OP(=O)(O)O)c2C)c(O)n1 [OxThDP 7b, oxythiamine diphosphate, reference compound] | – | 48 ± 4% | 81 ± 3% | inhibition at 1500 µM (S. cerevisiae PDC; [3]): 63 ± 3%; Inhibition (%) PO (A. viridans PO; [4]): 32 ± 5%
6 | COc1ccccc1C(=O)NCCCCc1cn(Cc2cnc(C)nc2N)nn1 [Compound 22c] | Insoluble | < 20% | – | –
7 | Cc1ncc(Cn2cc(CCn3cc(-c4ccccc4)nn3)nn2)c(N)n1 [Compound 15a] | Insoluble | 22 ± 2% | – | Inhibition (%) Yeast PDC (S. cerevisiae PDC; [3]): Insoluble; Inhibition (%) PO (A. viridans PO; [4]): <20%
8 | Cc1ncc(Cn2cc(CCCCNS(=O)(=O)C(F)(F)F)nn2)c(N)n1 [Compound 18c] | Insoluble | 22 ± 4% | – | –
9 | Cc1ncc(Cn2cc(CCNC(=O)c3cccc(-c4noc(C(F)(F)F)n4)c3)nn2)c(N)n1 [Compound 19a] | Insoluble | < 20% | – | –
10 | Cc1ncc(Cn2cc(CCCC(=O)Nc3ccccc3N)nn2)c(N)n1 [Compound 26b] | – | < 20% | 28 ± 3% | –
11 | Cc1ncc(Cn2cc(CCCNS(=O)(=O)C(F)(F)F)nn2)c(N)n1 [Compound 18b] | – | < 20% | 37 ± 4% | –
12 | Cc1ncc(Cn2cc(CCCn3cc(-c4ccccc4)nn3)nn2)c(N)n1 [Compound 15b] | Insoluble | < 20% | – | Inhibition (%) Yeast PDC (S. cerevisiae PDC; [3]): Insoluble; Inhibition (%) PO (A. viridans PO; [4]): <20%
13 | Cc1ncc(Cn2cc(CCCCC(=O)NO)nn2)c(N)n1 [Compound 24c] | – | 42 ± 5% | 63 ± 4% | inhibition at 1500 µM (S. cerevisiae PDC; [3]): 37 ± 4%; IC50 (A. viridans PO; [ThDP] 50 μM): 232 ± 23 µM; Ki (A. viridans PO; determined according to the KM for ThDP): 23.2 µM; Inhibition (%) PO (A. viridans PO; [4]): 24 ± 4%; IC50 at 96 h (in vitro): 44 ± 4 µM
14 | COc1ccccc1C(=O)NCCc1cn(Cc2cnc(C)nc2N)nn1 [Compound 22a] | – | < 20% | 61 ± 4% | –
15 | Cc1ncc(Cn2cc(CCOC(=O)c3cccc(-c4noc(C(F)(F)F)n4)c3)nn2)c(N)n1 [Compound 13a] | Insoluble | < 20% | – | –
16 | Cc1ncc(Cn2cc(CCCCC(=O)Nc3ccccc3N)nn2)c(N)n1 [Compound 26c] | – | < 20% | < 20% | –
17 | COc1ccccc1C(=O)NCCCc1cn(Cc2cnc(C)nc2N)nn1 [Compound 22b] | Insoluble | < 20% | – | –
18 | Cc1ncc(Cn2cc(CCCCO)nn2)c(N)n1 [Compound 9c] | – | < 20% | 33 ± 4% | –
19 | COc1cccc(C(=O)NCCCc2cn(Cc3cnc(C)nc3N)nn2)c1 [Compound 21b] | – | < 20% | 38 ± 5% | –
20 | Cc1ncc(Cn2cc(CCn3cc(-c4ccc(F)cc4)nn3)nn2)c(N)n1 [Compound 16a] | Insoluble | < 20% | – | Inhibition (%) Yeast PDC (S. cerevisiae PDC; [3]): Insoluble; Inhibition (%) PO (A. viridans PO; [4]): <20%
21 | Cc1ncc(Cn2cc(CCC(=O)NO)nn2)c(N)n1 [Compound 24a] | – | < 20% | 41 ± 3% | –
22 | Cc1ncc(Cn2cc(CCO)nn2)c(N)n1 [Compound 9a] | – | < 20% | 37 ± 3% | –
23 | Cc1ncc(Cn2cc(CCOC(=O)c3cccc(C#N)c3)nn2)c(N)n1 [Compound 14a] | Insoluble | < 20% | – | –
24 | Cc1ncc(Cn2cc(CCCO)nn2)c(N)n1 [Compound 9b] | – | < 20% | 35 ± 2% | –
25 | COc1cccc(C(=O)NCCc2cn(Cc3cnc(C)nc3N)nn2)c1 [Compound 21a] | – | < 20% | 48 ± 2% | –
26 | Cc1ncc(Cn2cc(CCNS(=O)(=O)C(F)(F)F)nn2)c(N)n1 [Compound 18a] | – | < 20% | < 20% | –
27 | Cc1ncc(Cn2cc(CCC(=O)Nc3ccccc3N)nn2)c(N)n1 [Compound 26a] | – | < 20% | < 20% | –

— paper PMC10184313, “Inhibition of Thiamine Diphosphate-Dependent Enzymes by Triazole-Based Thiamine Analogues” (ACS Medicinal Chemistry Letters, 2023)
